Assay: xn = mol fraction of the nth substance listed
Conditions: 100 kPa

O + CCCC[n+]1ccn(C)c1.[Br-]
x2 = 0
Conditions | viscosity [mPa·s]
313.15 K | 0.684
323.15 K | 0.58
333.15 K | 0.492
343.15 K | 0.429

O + CCCn1cc[n+](C)c1.[Br-]
x2 = 0
Conditions | viscosity [mPa·s]
303.15 K | 0.834
313.15 K | 0.684
323.15 K | 0.58

O + CC[n+]1ccn(C)c1.[Br-]
x2 = 0
Conditions | viscosity [mPa·s]
313.15 K | 0.684
333.15 K | 0.492

CCCC[n+]1ccn(C)c1.[Br-] + O
viscosity [mPa·s]
Conditions | x1 = 0.05 | x1 = 0.0992 | x1 = 0.1481 | x1 = 0.1979 | x1 = 0.2517 | x1 = 0.3882
303.15 K | – | – | 5.93 | 8.78 | 12 | –
313.15 K | 1.56 | 2.58 | 4.3 | 6.08 | 8.65 | –
323.15 K | 1.27 | 2.06 | 3.43 | 4.79 | 6.49 | –
333.15 K | – | – | 2.71 | – | – | –
343.15 K | 0.888 | 1.37 | 2.2 | 2.91 | 3.89 | 7.98

CCCn1cc[n+](C)c1.[Br-] + O
viscosity [mPa·s]
Conditions | 303.15 K | 313.15 K | 323.15 K | 333.15 K | 343.15 K
x1 = 0.0497 | 1.67 | 1.31 | – | 0.899 | 0.767
x1 = 0.0992 | 3.1 | 2.39 | 1.9 | 1.55 | 1.29
x1 = 0.1984 | 7.88 | 5.81 | 4.46 | 3.53 | 2.81
x1 = 0.4005 | – | 19.6 | 13.9 | 10.2 | 7.82
x1 = 0.5756 | 87.4 | 52.6 | 34 | 23.2 | 16.7

CC[n+]1ccn(C)c1.[Br-] + O
viscosity [mPa·s]
Conditions | x1 = 0.049 | x1 = 0.0997 | x1 = 0.1466 | x1 = 0.1978 | x1 = 0.2501 | x1 = 0.3881 | x1 = 0.543
303.15 K | – | 2.42 | 3.55 | – | 6.71 | 13 | 28.2
313.15 K | 1.14 | 1.9 | 2.72 | 4.1 | 5.07 | 9.59 | 19.4
323.15 K | 0.944 | 1.57 | 2.21 | 3.27 | 3.99 | 7.31 | 14.3
333.15 K | – | 1.3 | 1.85 | 2.66 | 3.21 | 5.76 | 11.1
343.15 K | 0.688 | 1.12 | 1.53 | 2.2 | 2.65 | 4.59 | 8.6
